Data: US6514949B1, “Method compositions for treating the inflammatory response” (University of Virginia Patent Foundation, priority 1994, dated 2003)

Tests used:
[1] = test system: TNFα-stimulated PMN; assay: TNF-stimulated PMN adherence to a fibrinogen-coated surface; assay type: cell-based, human
Experimental: PMN adherence to fibrinogen was measured as follows as adapted from Hanlon, J. Leukocyte Biol., 50, 43 (1991). Twenty-four well flat-bottomed tissue culture plates were incubated (37° C.) overnight with 0.5 ml of fibrinogen (5 mg/ml) dissolved in 1.5% NaHCO3. The plates were emptied and each well washed 2× with 1 ml of normal saline. The wells were then filled with 1 ml of HBSS-0.1% human serum albumin containing PMN (1×10^6/ml) with and without rhTNFα (1 U/ml), adenosine deaminase (ADA) (1 U/ML), WRC-0474[SHA 211] (10 nM), CGS21680 (30 nM), adenosine (100 nM) and rolipram (100 nM). The plates were incubated for 90 minutes at 37° C. in 5% CO2. Following incubation the tissue culture wells were washed free of non-adherent cells with normal saline. The adherent monolayer of PMN was lysed with 0.1% triton-X, the amount of lactic dehydrogenase (LDH) released from the monolayer assayed (LDH kit, Sigma Co., St. Louis, Mo.), and compared to a standard curve relating the LDH content to PMN numbers.

[2] = test system: TNFα-stimulated adherent human neutrophils; assay: TNFα-stimulated superoxide release of PMN adherent to fibrinogen coated surface; assay type: cell-based; settings: for superoxide release of TNFα-stimulated adherent PMN: 300 nM combined with rolipram (100 nM), p<0.05, FIG. 5
Experimental: TNFα-stimulated superoxide release of PMN adherent to a matrix protein (fibrinogen) coated surface. Human PMN (1×10^6/ml) from Ficoll-Hypaque separation were incubated for 90 minutes in 1 ml of Hanks balanced salt solution containing 0.1% human serum albumin, cytochrome c (120 μM), and catalase (0.062 mg/ml) in the presence and absence of rhTNF (1 U/ml), WRC-0474[SHA 211] (10 nM) and rolipram (100 nM) in a tissue culture well which had been coated overnight with human fibrinogen. SOD (200 U/ml) was added to matched samples. The supernatants were iced and centrifuged (2000 g×10 minutes) to remove any remaining suspended cells, and the optical density of the supernatants were read at 550 nm against the matched SOD samples, and the nmoles of SOD-inhibitable superoxide released in 90 minutes were calculated.
Additional effects of adenosine A2A agonists on adherent human neutropbil oxidative activity. The bioactivity of test compounds WRC-0474[SHA 211], WRC-0470, WRC-0090 and WRC-0018 were evaluated according to the following method modified from Sullivan, G. W. et al., Int. J. Immunopharmacol, 17, 793-803 (1995). Neutrophils (1×10^6/ml from Ficoll-Hypaque separation were incubated for 90 minutes in 1 ml of Hanks balanced salt solution containing 0.1% human serum albumin, cytochrome c (120 μM) and catalase (0.062 mg/ml in the presence and absence of rhTNFα (1 U/ml), WRC-0474[SHA 211], WRC-0470, WRC-0090 and WRC-0018 (3-300 nM), and rolipram (100 nM) in a tissue culture well which had been coated overnight with human fibrinogen. The supernatants were iced and centrifuged (200 g×10 min) to remove any remaining suspended cells, and the optical densities of the supernatants were read at 550 nm against matched superoxide dismutase (SOD) (200 U/ml) samples. The nmoles of SOD=inhabitable superoxide released in 90 min were calculated.

[3] = test system: TNFα-stimulated adherent neutrophil; assay: PMN degranulation (adherent cells), lysozyme release; assay type: cell-based, human; settings: WRC-0470 300 nM with rolipram 300 nM; P=0.027
Experimental: PMN degranulation (adherent cells). The following methods were adapted from Sullivan, G. W. and G. L. Mandell, Infect. Inumun., 30, 272-280 (1980). […] The supernatant fluids with any suspended neutrophils were harvested following incubation, centrifuged (2000 ×g for 10 min) to remove any suspended cells and the cell-free supernatants frozen. Release of lysozyme, a component of neutrophil primary and secondary granules was assayed. Lysis of a suspension of Micrococcus lysodeikticus by the “cell-free supernatant” was measured by spectrophotometric analysis ([…]) to determine the amount of release of granule contents to the surrounding medium.

[4] = test system: neutrophils in whole blood; assay: PMN oxidative activity in whole blood; assay type: cell-based
Experimental: PMN oxidative activity in whole blood. The following methods were adapted from Rothe, G. A. et al., J. Immunol. Meth., 138, 133-135 (1991). Heparinized whole blood (0.8 ml) was incubated (37°; 30 min) with adenosine deaminase (ADA, 1 U/ml), catalase (14,000 U/ml), ±dihydrorhodamine 123, ±WRC-0470 (3-300 nM), ±rolipram (300 nM) and ±TNFα (10 U/ml). The primed blood samples were stimulated with fMLP (15 min), then iced, the red blood cells lysed with FACS lysing solution (Becton-Dickinson, San Jose, Calif.), washed and the leukocytes resuspended in phosphate-buffered saline (PBS). These samples containing mixed leukocytes were gated for neutrophils by forward and side scatter and the fluorescence of 10,000 neutrophils measured in the FL1 channel of a FACScan (Beckton-Dickinson) fluorescence-activated cell sorter.

[5] = test system: adherent human monocytes; assay: Production of TNFα by purified human adherent monocytes; assay type: cell-based
Experimental: Production of TNFα by purified human adherent monocytes. A monocyte rich monolayer (>95% monocytes) was prepared by incubating 1 ml of the mononuclear leukocyte fraction (5×10^5/ml) from a Ficoll-Hypaque separation in wells of a 24 well tissue culture plate (1 hr; 37° C.; 5% CO2). […] The samples were incubated for 4 hr (37° C.; 5% CO2) and the supernatants harvested. Any suspended cells were removed by centrifugation and the cell-free samples frozen (−70° C.). TNFα was assayed in the cell-free supernatants by an ELISA kit (Cistron Biotechnology, Pine Brook, N.J.).

[6] = test system: Adult wistar rats; assay: Rat model of inflammation (bacterial meningitis): CSF WBC pleocytosis and blood-brain barrier permeability; assay type: in vivo
Experimental: Effects of WRC-0470 and rolipram on the extravasation of white blood cells in a rat model of inflammation. Adult wistar rats (approximately 200 g) were anesthetized with intermuscular injections of ketamine and xylazine. Bacteria meningitis (BM) was introduced via intracistemal inoculation of either E. coli strain 026:B6LPS (200 ng), cytokines (IL-1 and TNFα, or LPS plus cytokines). The animals were then infused with rolipram and/or […] over the duration of the experiment using a Harvard pump. CSF (cerebrospinal fluid) and blood was then sampled at 4 h post-inoculation and alterations in BBBP (blood-brain barrier permeability) and WBC (white blood cell) counts were determined. CSF and WBC concentrations were determined with standard hemacytometer methods. For assessment of % BBBP, rats were given an intravenous injection of 5 μCi 125I-labeled bovine serum albumin concomitant with intracistemal inoculation. Equal samples of CSF and blood were read simultaneously in a gamma counter and after subtraction of background radioactivity, % BBBP was calculated by the following formula: % BBBP=(cpm CSF/cpm blood)×100. All statistical tests were performed using Instat biostatistical software to compare the post-inoculation samples of experimental rats with the control rats. The statistical tests used to generate p-values were Student's t-test and ANOVA.

CCNC(=O)[C@H]1O[C@@H](n2cnc3c(N)nc(NCCc4ccc(CCC(=O)O)cc4)nc32)[C@H](O)[C@@H]1O [CGS21680]
TNF-stimulated PMN adherence ([1]; 30 nM, in the presence of ADA, TNF control 38%, p=0.004): 30 % adhered

Nc1nc(OCCc2ccc3ccccc3c2)nc2c1ncn2[C@@H]1O[C@H](CO)[C@@H](O)[C@H]1O [WRC-0018]
superoxide release of TNFα-stimulated adherent PMN [2]: synergistically decreased superoxide release

Cc1ccc(CCOc2nc(N)c3ncn([C@@H]4O[C@H](CO)[C@@H](O)[C@H]4O)c3n2)cc1 [WRC-0090]
superoxide release of TNFα-stimulated adherent PMN [2]: synergistically decreased superoxide release

Nc1nc(N/N=C/C2CCCCC2)nc2c1ncn2[C@@H]1O[C@H](CO)[C@@H](O)[C@H]1O [WRC-0470]
superoxide release of TNFα-stimulated adherent PMN [2]: synergistically decreased superoxide release
rank of activity among the four A2A agonists, adherent PMN oxidative activity ([2]; in the presence of rolipram): most active
decrease of TNFα-stimulated adherent neutrophil degranulation [3]: 67%
neutrophil oxidative activity in whole blood ([4]; 30-300 nM with rolipram 300 nM, fMLP or TNFα then fMLP): decreased neutrophil oxidative activity synergistically
oxidative activity of TNFα-primed fMLP-stimulated neutrophils in whole blood ([4]; FIG. 6): decreased oxidative activity
endotoxin-stimulated adherent monocyte production of TNFα ([5]; ±rolipram, P<0.050, FIGS. 7A and 7B): decreased
blood-brain barrier permeability (% BBBP) ([6]; 1.2 μg/kg/hr, rebound effect): returned to control
blood-brain barrier permeability (% BBBP) ([6]; 0.01-0.015 μg/kg/hr, p<0.05 as compared to control, FIG. 9): significant response
WBC migrated into the sub-arachnoid space (CSF WBC) ([6]; WRC-0470 0.1 μg/kg/hr in combination with rolipram 0.001 μg/kg/hr, FIG. 11): 200±70 WBC/μl
WBC migrated into the sub-arachnoid space (CSF WBC) ([6]; WRC-0470 alone (0.1 μg/kg/hr), p<0.050 vs combination): 600±308 WBCs/μl
CSF WBC pleocytosis ([6]; infusion 0.005-1.2 μg/kg/hr, p<0.05 as compared to control, FIG. 8): inhibited pleocytosis

Nc1nc(NCCc2ccc(O)cc2)nc2nc(-c3ccco3)nn12 [ZM241385, 4-(2-[7-amino-2-(2-furyl)[1,2,4]-triazolo[2,3a]-[1,3,5]trazinyl-amino]ethyl)-phenol, reference compound]
antagonism of the effect of WRC-0470 (300 nM) combined with rolipram (300 nM) on TNFα release from monocytes ([5]; ZM241385 50 nM, p=0.020, FIG. 7B): significantly inhibited the effect of WRC-0470

Nc1ncnc2c1ncn2[C@@H]1O[C@H](CO)[C@@H](O)[C@H]1O [adenosine]
TNF-stimulated PMN adherence ([1]; 100 nM, p=0.009 compared to TNF in the presence of ADA): 28 % adhered

COc1ccc(C2CNC(=O)C2)cc1OC1CCCC1 (centres unmarked) [rolipram, 4-(3-cyclopentyloxy-4-methoxyphenyl)-2-pyrrolidone, reference compound]
alterations of BBBP ([6]; 0.002 μg/kg/hr): no significant effect
inhibition of CSF pleocytosis ([6]; 0.01 μg/kg/hr, p<0.05, FIG. 10): 99%
alterations of BBBP ([6]; 0.01 or 0.005 μg/kg/hr, p<0.05): significant inhibition
WBC migrated into the sub-arachnoid space (CSF WBC) ([6]; rolipram alone (0.001 μg/kg/hr), p<0.050 vs combination): 1,670±1,273 WBC/μl
